# Test results taken from ChEMBL document CHEMBL1201861, “Genomics of Drug Sensitity in Cancer screening data, Wellcome Trust Sanger Institute”.
# Legend:
# D-247MG = experiment: cells; assay type: functional, cell-based; settings: Homo sapiens
# Description: SANGER: Inhibition of human D-247MG cell growth in a cell viability assay.
# Daudi = experiment: cells; assay type: functional, cell-based; settings: Homo sapiens;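 note: growth inhibition of Daudi cells, read out by a viability assay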
# Description: SANGER: Inhibition of human Daudi cell growth in a cell viability assay.
# EB-3 = experiment: cells; assay type: functional, cell-based; settings: Homo sapiens;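 note: human EB-3 cells, growth inhibition read out via a cell viability assay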
# Description: SANGER: Inhibition of human EB-3 cell growth in a cell viability assay.
# LC-1F = experiment: cells; assay type: functional, cell-based; settings: Homo sapiens;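 note: growth inhibition of human LC-1F cells, read out with a cell viability assay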
# Description: SANGER: Inhibition of human LC-1F cell growth in a cell viability assay.
# MRK-nu-1 = experiment: cells; assay type: functional, cell-based; settings: Homo sapiens;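 note: cell viability assay measuring growth suppression of human MRK-nu-1 cells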
# Description: SANGER: Inhibition of human MRK-nu-1 cell growth in a cell viability assay.
# NALM-6 = experiment: cells; assay type: functional, cell-based; settings: Homo sapiens;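 note: growth inhibition of NALM-6 cells, read out with a cell viability assay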
# Description: SANGER: Inhibition of human NALM-6 cell growth in a cell viability assay.
# SU-DHL-1 = experiment: SANGER: Inhibition of human SU-DHL-1 cell growth in a cell viability assay.; assay type: functional, cell-based
# TALL-1 = experiment: cells; assay type: functional, cell-based; settings: Homo sapiens;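 note: growth inhibition of cultured human TALL-1 cells, read out by a cell viability assay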
# Description: SANGER: Inhibition of human TALL-1 cell growth in a cell viability assay.
# BC1 cell line = experiment: SANGER: Inhibition of human BC-1 cell growth in a cell viability assay.; assay type: functional, cell-based
# BC-3 = experiment: cells; assay type: functional, cell-based; settings: Homo sapiens;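 note: cell viability assay measuring growth inhibition of human BC-3 cells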
# Description: SANGER: Inhibition of human BC-3 cell growth in a cell viability assay.
# TUR = experiment: cells; assay type: functional, cell-based; settings: Homo sapiens;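 note: growth inhibition of human TUR cells, read out with a cell viability assay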
# Description: SANGER: Inhibition of human TUR cell growth in a cell viability assay.
# CHP-126 = experiment: cells; assay type: functional, cell-based; settings: Homo sapiens
# Description: SANGER: Inhibition of human CHP-126 cell growth in a cell viability assay.
# COLO-741 = experiment: cells; assay type: functional, cell-based; settings: Homo sapiens
# Description: SANGER: Inhibition of human COLO-741 cell growth in a cell viability assay.
# CP50-MEL-B = experiment: cells; assay type: functional, cell-based; settings: Homo sapiens;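 note: growth inhibition of the human cell line, measured with a cell viability read-out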
# Description: SANGER: Inhibition of human CP50-MEL-B cell growth in a cell viability assay.
# DU-145 = experiment: cells; assay type: functional, cell-based; settings: Homo sapiens
# Description: SANGER: Inhibition of human DU-145 cell growth in a cell viability assay.
# DoTc2-4510 = experiment: cells; assay type: functional, cell-based; settings: Homo sapiens
# ESS-1 = experiment: cells; assay type: functional, cell-based; settings: Homo sapiens;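 note: growth inhibition of human ESS-1 cells, read out by a cell viability assay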
# Description: SANGER: Inhibition of human ESS-1 cell growth in a cell viability assay.
# GCT = experiment: cells; assay type: functional, cell-based; settings: Homo sapiens;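 note: GCT cell line proliferation inhibition, read out with a cell viability assay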
# Description: SANGER: Inhibition of human GCT cell growth in a cell viability assay.
# GP5d = experiment: cells; assay type: functional, cell-based; settings: Homo sapiens;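 note: growth inhibition of human GP5d cells, read out with a cell viability assay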
# Description: SANGER: Inhibition of human GP5d cell growth in a cell viability assay.
# HCC1937 = experiment: cells; assay type: functional, cell-based; settings: Homo sapiens;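 note: growth inhibition measured with a cell viability read-out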
# Description: SANGER: Inhibition of human HCC1937 cell growth in a cell viability assay.
# HCC38 = experiment: cells; assay type: functional, cell-based; settings: Homo sapiens;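 note: cell viability assay on the human HCC38 cell line, with IC50 marking the concentration that inhibits cell growth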
# Description: SANGER: Inhibition of human HCC38 cell growth in a cell viability assay.
# HCT-116 = experiment: cells; assay type: functional, cell-based; settings: Homo sapiens
# Description: SANGER: Inhibition of human HCT-116 cell growth in a cell viability assay.
# HOP-92 = experiment: cells; assay type: functional, cell-based; settings: Homo sapiens;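 note: cell viability readout, with IC50 reflecting inhibition of HOP-92 cell growth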
# Description: SANGER: Inhibition of human HOP-92 cell growth in a cell viability assay.
# HOS = experiment: cells; assay type: functional, cell-based; settings: Homo sapiens;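 note: growth inhibition of human HOS cells, read out with a cell viability assay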
# Description: SANGER: Inhibition of human HOS cell growth in a cell viability assay.
# HT-1080 = experiment: cells; assay type: functional, cell-based; settings: Homo sapiens
# Description: SANGER: Inhibition of human HT-1080 cell growth in a cell viability assay.
# HT55 = experiment: cells; assay type: functional, cell-based; settings: Homo sapiens;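 note: cell viability readout measuring growth inhibition of human HT55 cells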
# Description: SANGER: Inhibition of human HT55 cell growth in a cell viability assay.
# HuCCT-1 = experiment: cells; assay type: functional, cell-based, HuCCT1; settings: Homo sapiens;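 note: growth inhibition of HuCCT-1 cells, read out by a cell viability assay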
# Description: SANGER: Inhibition of human HuCCT1 cell growth in a cell viability assay.
# HuP-T3 = experiment: cells; assay type: functional, cell-based; settings: Homo sapiens;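 note: HuP-T3 cell growth inhibition, read out with a cell viability assay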
# Description: SANGER: Inhibition of human HuP-T3 cell growth in a cell viability assay.
# IGR-1 = experiment: cells; assay type: functional, cell-based; settings: Homo sapiens;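 note: growth inhibition of human IGR-1 cells, read out with a cell viability assay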
# Description: SANGER: Inhibition of human IGR-1 cell growth in a cell viability assay.
# KYSE-510 = experiment: cells; assay type: functional, cell-based; settings: Homo sapiens;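 note: cell viability readout used to measure how strongly growth of the cell line is suppressed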
# Description: SANGER: Inhibition of human KYSE-510 cell growth in a cell viability assay.
# MCF7 = experiment: cells; assay type: functional, cell-based; settings: Homo sapiens;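 note: growth inhibition of human MCF7 cells, read out with a cell viability assay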
# Description: SANGER: Inhibition of human MCF7 cell growth in a cell viability assay.
# MFE-280 = experiment: cells; assay type: functional, cell-based; settings: Homo sapiens;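 note: growth inhibition of MFE-280 cells, determined with a cell viability readout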
# Description: SANGER: Inhibition of human MFE-280 cell growth in a cell viability assay.
# MKN-1 = experiment: cells; assay type: functional, cell-based; settings: Homo sapiens;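 note: growth inhibition of human MKN1 cells, read out by a cell viability measurement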
# Description: SANGER: Inhibition of human MKN1 cell growth in a cell viability assay.
# MKN-7 = experiment: cells; assay type: functional, cell-based; settings: Homo sapiens;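 note: growth inhibition of MKN-7 cells, read out with a cell viability assay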
# Description: SANGER: Inhibition of human MKN7 cell growth in a cell viability assay.
# MeWo = experiment: cells; assay type: functional, cell-based; settings: Homo sapiens;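 note: growth inhibition of MeWo cells, determined by a cell viability readout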
# Description: SANGER: Inhibition of human Mewo cell growth in a cell viability assay.
# NCI-H1437 = experiment: cells; assay type: functional, cell-based; settings: Homo sapiens;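 note: growth inhibition of human NCI-H1437 cells, read out by a cell viability assay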
# Description: SANGER: Inhibition of human NCI-H1437 cell growth in a cell viability assay.
# NCI-H1573 = experiment: cells; assay type: functional, cell-based; settings: Homo sapiens;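 note: growth inhibition of NCI-H1573 cells, read out with a cell viability assay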
# Description: SANGER: Inhibition of human NCI-H1573 cell growth in a cell viability assay.
# NCI-H1755 = experiment: cells; assay type: functional, cell-based; settings: Homo sapiens;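 note: cell viability readout used to measure growth inhibition of NCI-H1755 cells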
# Description: SANGER: Inhibition of human NCI-H1755 cell growth in a cell viability assay.
# NCI-H2228 = experiment: cells; assay type: functional, cell-based; settings: Homo sapiens;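 note: growth inhibition of human NCI-H2228 cells, read out by a cell viability assay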
# Description: SANGER: Inhibition of human NCI-H2228 cell growth in a cell viability assay.
# NCI-H2405 = experiment: cells; assay type: functional, cell-based; settings: Homo sapiens;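 note: growth inhibition of the human cell line, read out with a cell viability assay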
# Description: SANGER: Inhibition of human NCI-H2405 cell growth in a cell viability assay.
# NCI-H28 = experiment: cells; assay type: functional, cell-based; settings: Homo sapiens;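 note: growth inhibition of human NCI-H28 cells, read out as cell viability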
# Description: SANGER: Inhibition of human NCI-H28 cell growth in a cell viability assay.
# NCI-H460 = experiment: cells; assay type: functional, cell-based; settings: Homo sapiens;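 note: cell viability assay scoring growth inhibition of human NCI-H460 cells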
# Description: SANGER: Inhibition of human NCI-H460 cell growth in a cell viability assay.
# NCI-H596 = experiment: cells; assay type: functional, cell-based; settings: Homo sapiens;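 note: growth inhibition of NCI-H596 cells, read out with a cell viability assay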
# Description: SANGER: Inhibition of human NCI-H596 cell growth in a cell viability assay.
# NCI-H650 = experiment: cells; assay type: functional, cell-based; settings: Homo sapiens;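 note: growth inhibition of NCI-H650 cells, read out by a viability assay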
# Description: SANGER: Inhibition of human NCI-H650 cell growth in a cell viability assay.
# NCI-H661 = experiment: cells; assay type: functional, cell-based; settings: Homo sapiens;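 note: cell viability assay read-out, IC50 being the concentration that inhibits growth of the cells by half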
# Description: SANGER: Inhibition of human NCI-H661 cell growth in a cell viability assay.
# OAW-28 = experiment: cells; assay type: functional, cell-based; settings: Homo sapiens;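 note: growth inhibition of OAW-28 cells, read out with a cell viability assay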
# Description: SANGER: Inhibition of human OAW-28 cell growth in a cell viability assay.
# RVH-421 = experiment: cells; assay type: functional, cell-based; settings: Homo sapiens
# Description: SANGER: Inhibition of human RVH-421 cell growth in a cell viability assay.
# SF-295 = experiment: cells; assay type: functional, cell-based; settings: Homo sapiens;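 note: growth inhibition of SF-295 cells, read out with a cell viability assay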
# Description: SANGER: Inhibition of human SF295 cell growth in a cell viability assay.
# SK-LU-1 = experiment: cells; assay type: functional, cell-based; settings: Homo sapiens;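 note: cell viability assay measuring growth inhibition of human SK-LU-1 cells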
# Description: SANGER: Inhibition of human SK-LU-1 cell growth in a cell viability assay.
# SK-MEL-28 = experiment: cells; assay type: functional, cell-based; settings: Homo sapiens;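 note: growth inhibition of human SK-MEL-28 cells, read out with a cell viability assay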
# Description: SANGER: Inhibition of human SK-MEL-28 cell growth in a cell viability assay.
# SW1417 = experiment: cells; assay type: functional, cell-based; settings: Homo sapiens;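 note: growth inhibition of human SW1417 cells, read out with a cell viability assay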
# Description: SANGER: Inhibition of human SW1417 cell growth in a cell viability assay.
# SW1573 = experiment: cells; assay type: functional, cell-based; settings: Homo sapiens;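 note: growth inhibition of SW1573 cells, read out with a cell viability assay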
# Description: SANGER: Inhibition of human SW1573 cell growth in a cell viability assay.
# SW1990 = experiment: cells; assay type: functional, cell-based; settings: Homo sapiens
# Description: SANGER: Inhibition of human SW1990 cell growth in a cell viability assay.
# SAOS-2 = experiment: cells; assay type: functional, cell-based; settings: Homo sapiens;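 note: growth inhibition of human Saos-2 cells determined by a cell viability assay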
# Description: SANGER: Inhibition of human Saos-2 cell growth in a cell viability assay.
# T-24 = experiment: cells; assay type: functional, cell-based; settings: Homo sapiens;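 note: growth inhibition of T-24 cells, read out with a cell viability assay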
# Description: SANGER: Inhibition of human T-24 cell growth in a cell viability assay.
# 647-V = experiment: cells; assay type: functional, cell-based; settings: Homo sapiens;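 note: growth inhibition of 647-V cells, read out with a cell viability assay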
# Description: SANGER: Inhibition of human 647-V cell growth in a cell viability assay.
# 8305C = experiment: cells; assay type: functional, cell-based; settings: Homo sapiens
# Description: SANGER: Inhibition of human 8305C cell growth in a cell viability assay.
# A204 = experiment: cells; assay type: functional, cell-based; settings: Homo sapiens;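 note: growth inhibition of human A204 cells, read out with a cell viability assay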
# Description: SANGER: Inhibition of human A204 cell growth in a cell viability assay.
# ACHN = experiment: cells; assay type: functional, cell-based; settings: Homo sapiens;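 note: cell viability read-out used to gauge how strongly growth of human ACHN cells is suppressed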
# Description: SANGER: Inhibition of human ACHN cell growth in a cell viability assay.
# BHY = experiment: cells; assay type: functional, cell-based; settings: Homo sapiens;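 note: cell growth inhibition read out by a viability assay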
# Description: SANGER: Inhibition of human BHY cell growth in a cell viability assay.
# BPH-1 = experiment: cells; assay type: functional, cell-based; settings: Homo sapiens;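 note: cell viability assay measuring growth inhibition of human BPH-1 cells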
# Description: SANGER: Inhibition of human BPH-1 cell growth in a cell viability assay.
# UACC-62 = experiment: cells; assay type: functional, cell-based; settings: Homo sapiens
# Description: SANGER: Inhibition of human UACC-62 cell growth in a cell viability assay.
# UACC-893 = experiment: cells; assay type: functional, cell-based; settings: Homo sapiens
# Description: SANGER: Inhibition of human UACC-893 cell growth in a cell viability assay.
# VM-CUB-1 = experiment: cells; assay type: functional, cell-based; settings: Homo sapiens
# Description: SANGER: Inhibition of human VM-CUB-1 cell growth in a cell viability assay.
# COLO-678 = experiment: cells; assay type: functional, cell-based; settings: Homo sapiens
# Description: SANGER: Inhibition of human COLO-678 cell growth in a cell viability assay.
smiles,measurement,setting,value
Cc1n[nH]c2ccc(-c3cncc(OC[C@@H](N)Cc4c[nH]c5ccccc45)c3)cc12 [A-443654],IC50,D-247MG,974 nM
same,IC50,Daudi,355 nM
same,IC50,EB-3,334 nM
same,IC50,LC-1F,181 nM
same,IC50,MRK-nu-1,104 nM
same,IC50,NALM-6,128 nM
same,IC50,SU-DHL-1,797 nM
same,IC50,TALL-1,242 nM
same,IC50,BC1 cell line,701 nM
same,IC50,BC-3,342 nM
same,IC50,TUR,> 1020 nM
same,IC50,CHP-126,267 nM
Cc1nc(Nc2ncc(C(=O)Nc3c(C)cccc3Cl)s2)cc(N2CCN(CCO)CC2)n1 [DASATINIB],IC50,D-247MG,> 1280 nM
same,IC50,Daudi,> 1280 nM
same,IC50,EB-3,> 1280 nM
same,IC50,LC-1F,> 1280 nM
same,IC50,MRK-nu-1,> 1280 nM
same,IC50,NALM-6,193 nM
same,IC50,SU-DHL-1,> 1280 nM
same,IC50,TALL-1,> 1280 nM
same,IC50,BC1 cell line,> 1280 nM
same,IC50,BC-3,> 1280 nM
same,IC50,TUR,> 1280 nM
same,IC50,CHP-126,> 1280 nM
CCn1c(-c2nonc2N)nc2cnc(Oc3cccc(NC(=O)c4ccc(OCCN5CCOCC5)cc4)c3)cc21 [GSK-269962A],IC50,D-247MG,628 nM
same,IC50,Daudi,2100 nM
same,IC50,EB-3,> 2500 nM
same,IC50,LC-1F,> 2500 nM
same,IC50,MRK-nu-1,576 nM
same,IC50,NALM-6,1560 nM
same,IC50,SU-DHL-1,> 2500 nM
same,IC50,TALL-1,> 2500 nM
same,IC50,BC1 cell line,> 2500 nM
same,IC50,BC-3,> 2500 nM
same,IC50,TUR,> 2500 nM
same,IC50,CHP-126,> 2500 nM
Cc1[nH]c(/C=C2\C(=O)Nc3ccc(S(=O)(=O)Cc4c(Cl)cccc4Cl)cc32)c(C)c1C(=O)N1CCC[C@@H]1CN1CCCC1 [PHA-665752],IC50,D-247MG,> 2000 nM
same,IC50,Daudi,> 2000 nM
same,IC50,EB-3,> 2000 nM
same,IC50,LC-1F,> 2000 nM
same,IC50,MRK-nu-1,> 2000 nM
same,IC50,NALM-6,> 2000 nM
same,IC50,SU-DHL-1,> 2000 nM
same,IC50,TALL-1,> 2000 nM
same,IC50,BC1 cell line,> 2000 nM
same,IC50,BC-3,> 2000 nM
same,IC50,TUR,> 2000 nM
same,IC50,CHP-126,> 2000 nM
CC[C@]1(O)C[C@@H]2CN(CCc3c([nH]c4ccccc34)[C@@](C(=O)OC)(c3cc4c(cc3OC)N(C)[C@H]3[C@@](O)(C(=O)OC)[C@H](OC(C)=O)[C@]5(CC)C=CCN6CC[C@]43[C@@H]65)C2)C1 [VINBLASTINE],IC50,COLO-741,2.14 nM
same,IC50,CP50-MEL-B,13.1 nM
same,IC50,D-247MG,6.98 nM
same,IC50,DU-145,98.7 nM
same,IC50,DoTc2-4510,16.5 nM
same,IC50,ESS-1,4.88 nM
same,IC50,GCT,4.73 nM
same,IC50,GP5d,4.67 nM
same,IC50,HCC1937,> 100 nM
same,IC50,HCC38,58.4 nM
same,IC50,HCT-116,3.63 nM
same,IC50,HOP-92,25.9 nM
same,IC50,HOS,6.25 nM
same,IC50,HT-1080,4.23 nM
same,IC50,HT55,> 100 nM
same,IC50,HuCCT-1,17.3 nM
same,IC50,HuP-T3,18 nM
same,IC50,IGR-1,2.08 nM
same,IC50,KYSE-510,5.87 nM
same,IC50,MCF7,31.6 nM
same,IC50,MFE-280,36.1 nM
same,IC50,MKN-1,10.1 nM
same,IC50,MKN-7,76.7 nM
same,IC50,MeWo,9.13 nM
same,IC50,NCI-H1437,7.76 nM
same,IC50,NCI-H1573,30.7 nM
same,IC50,NCI-H1755,19.4 nM
same,IC50,NCI-H2228,41.1 nM
same,IC50,NCI-H2405,> 100 nM
same,IC50,NCI-H28,34.3 nM
same,IC50,NCI-H460,46.4 nM
same,IC50,NCI-H596,> 100 nM
same,IC50,NCI-H650,27.1 nM
same,IC50,NCI-H661,8.05 nM
same,IC50,OAW-28,40.7 nM
same,IC50,RVH-421,7.25 nM
same,IC50,SF-295,36.3 nM
same,IC50,SK-LU-1,18.7 nM
same,IC50,SK-MEL-28,17 nM
same,IC50,SW1417,> 100 nM
same,IC50,SW1573,33.2 nM
same,IC50,SW1990,61.4 nM
same,IC50,SAOS-2,32.3 nM
same,IC50,T-24,5.1 nM
same,IC50,647-V,23 nM
same,IC50,8305C,3.67 nM
same,IC50,A204,8.76 nM
same,IC50,ACHN,59 nM
same,IC50,BHY,15.3 nM
same,IC50,BPH-1,3.26 nM
same,IC50,UACC-62,8.06 nM
same,IC50,UACC-893,98.3 nM
same,IC50,VM-CUB-1,4.28 nM
same,IC50,COLO-678,> 100 nM
